For test [1], the system named is Aspergillus niger. The experiment in a line: Antimicrobial activity against Aspergillus niger incubated for 72 hrs by standard broth dilution method. The format is functional. On the technique in general: In broth dilution the organism is exposed to a series of concentrations in liquid medium.
The subject of test [2] is Botrytis cinerea. As to the kind of experiment: Antimicrobial activity against Botrytis cinerea incubated for 72 hrs by standard broth dilution method. The format is functional.
For test [3], the system named is Colletotrichum acutatum. The experiment in a line: Antimicrobial activity against Colletotrichum acutatum incubated for 72 hrs by standard broth dilution method. The format is functional.
Test [4] concerns Rhizoctonia solani. The experiment in a line: Antimicrobial activity against Rhizoctonia solani incubated for 72 hrs by standard broth dilution method. The format is functional.
Test [5] has as its system Candida albicans. The experiment in a line: Antimicrobial activity against Candida albicans incubated for 72 hrs by standard broth dilution method. The format is functional.
Test [6] concerns Saccharomyces cerevisiae. As to the kind of experiment: Antimicrobial activity against Saccharomyces cerevisiae incubated for 72 hrs by standard broth dilution method. The class given is functional.
Test [7] relates to Aspergillus niger. As to the kind of experiment: Antifungal activity against Aspergillus niger. The format is functional.
For test [8], the system named is Rhizoctonia solani. The experiment in a line: Antifungal activity against Rhizoctonia solani incubated for 48 hrs by standard broth dilution method. The class given is functional.
Another test concerns Phytophthora capsici. The experiment in a line: Antifungal activity against Phytophthora capsici incubated for 48 hrs by standard broth dilution method. The class given is functional.
The test system of test [9] is Botrytis cinerea. As to the kind of experiment: Antifungal activity against Botrytis cinerea incubated for 48 hrs by standard broth dilution method. The format is functional.
Test [10] concerns Colletotrichum acutatum. As to the kind of experiment: Antifungal activity against Colletotrichum acutatum incubated for 48 hrs by standard broth dilution method. The format is functional.
The subject of test [11] is Candida albicans. As to the kind of experiment: Antimicrobial activity against Candida albicans assessed as reduction of microbial microbial growth. The class given is functional.
Test [12] concerns Candida albicans. As to the kind of experiment: Antifungal activity against Candida albicans. The class given is functional, organism-based.
For test [13], the system named is Saccharomyces cerevisiae. The experiment in a line: Antifungal activity against Saccharomyces cerevisiae. The class given is functional.
The subject of test [14] is Rhizoctonia solani. The experiment in a line: Antifungal activity against Rhizoctonia solani. The format is functional.
Test [15] has as its system Botrytis cinerea. As to the kind of experiment: Antifungal activity against Botrytis cinerea. The class given is functional.
In test [16] the test system is Colletotrichum acutatum. The experiment in a line: Antifungal activity against Colletotrichum acutatum. The format is functional.

In brackets after ≈: the same amount, converted by molar mass. Where a SMILES comes first, the peptide text is derived from it. The star is where a group is joined. X1 = CCC(C)CC(C)CCCCC[C@@H](O)CC(=O)*; X3 = CCC(C)CCCCCCCC[C@@H](O)CC(=O)*

What is called MIC is the least concentration at which growth counts as inhibited. On to `C[C@@H]1CCC/C=C/CCC(=O)C[C@@H](O)C/C=C\C=C\[C@@H](O)C/C=C/C=C\C(=O)O1` [MACROLACTIN F], for which the minimal inhibitory concentration (MIC) against Aspergillus niger [1], in the test with Botrytis cinerea [2], in the test on Colletotrichum acutatum [3], against Rhizoctonia solani [4], against Candida albicans [5] and against Saccharomyces cerevisiae [6] was 0.02 µg/mL (≈ 0.0497 µM) throughout.

As for `Cc1ccc(CC2CCC(=O)N2)c(C)c1` (stereo not given), the minimum inhibitory concentration (MIC) against Aspergillus niger [7] turned out to be 1 µg/mL (≈ 4.92 µM).

As to `CCC(C)CC(C)CCCCC[C@@H](O)CC(=O)N[C@@H](CC(C)C)C(=O)N[C@@H](CCC(=O)O)C(=O)N[C@@H](CC(C)C)C(=O)N[C@@H](CC(C)C)C(=O)O` (stereo not given in full) (X1-LELL-OH), the minimum inhibitory concentration (MIC) in the test with Rhizoctonia solani [8], against Phytophthora capsici, against Botrytis cinerea [9] and against Colletotrichum acutatum [10] was 0.01 µg/mL (≈ 0.0138 µM) throughout.

As to `C[C@@H]1CCCCC/C=C/[C@H](O)C[C@@H](O)C/C=C\C=C\[C@@H](O[C@@H]2O[C@@H](CO)[C@H](O)[C@@H](O)[C@@H]2O)C/C=C/C=C\C(=O)O1`, the minimum inhibitory concentration (MIC) with Aspergillus niger [1], in the test on Botrytis cinerea [2], in the test with Colletotrichum acutatum [3], against Rhizoctonia solani [4], against Candida albicans [5] and against Saccharomyces cerevisiae [6] was 0.02 µg/mL (≈ 0.0353 µM) each time.

For `C[C@@H]1CCCCC/C=C/[C@H](O)C[C@@H](O)C/C=C\C=C\[C@@H](O)C/C=C/C=C\C(=O)O1`, the minimum inhibitory concentration (MIC) against Aspergillus niger [1], in the test with Botrytis cinerea [2], with Colletotrichum acutatum [3], in the test with Rhizoctonia solani [4], in the test with Candida albicans [5] and against Saccharomyces cerevisiae [6] was 0.02 µg/mL (≈ 0.0494 µM) throughout.

Consider `CC1=CCC[C@H](C)[C@@]1(C)CC/C(C)=C/CC/C(C)=C/CS(=O)(=O)CCNC(=N)N`, for which the minimum inhibitory concentration (MIC) with Candida albicans [11] worked out at 0.5 µg/mL.

With `C=C[C@@](C)(CC/C=C(\C)CC[C@]1(C)C(C=O)=CCC[C@H]1C)S(=O)(=O)CCNC(=N)N`, the MIC in the test on Candida albicans [11] turned out to be 4 µg/mL.

With `CC(C)C[C@@H](C)[C@@H](O)[C@@H](C)C(=O)N[C@H](C)C(=O)N[C@@H](CCCNC(=N)N)[C@@H](O)[C@@H](O)C(=O)N[C@H](C(=O)N[C@@H](C(=O)N[C@@H](C(=O)N[C@H](CCCNC(=N)N)C(=O)O)[C@@H](C)O)[C@@H](C)O)[C@@H](C)[C@@H](C)C(N)=O`, the lowest concentration to inhibit growth against Candida albicans [12] (MIC) was 0.1 µg/mL (≈ 0.101 µM).

As for `C=C(CC[C@@H](C)[C@H]1CC[C@H]2C3=C(CC[C@]12C)[C@@]1(C)CC[C@H](O)C[C@@H]1C(=O)O3)C(C)C`, the MIC with Candida albicans [12] was determined as 0.79 µg/mL (≈ 1.91 µM).

In the case of `C[C@@H]1CCC/C=C/C=C/[C@H](O)C[C@@H](O)C/C=C\C=C\[C@@H](O[C@@H]2O[C@@H](CO)[C@H](O)[C@@H](O)[C@@H]2O)C/C=C/C=C\C(=O)O1`, the MIC against Aspergillus niger [1], in the test on Botrytis cinerea [2], in the test on Colletotrichum acutatum [3], in the test on Rhizoctonia solani [4], with Candida albicans [5] and in the test with Saccharomyces cerevisiae [6] was 0.02 µg/mL (≈ 0.0354 µM) in each case.

Take `C[C@@H]1CCC/C=C/C=C/[C@H](O)C[C@@H](O)C/C=C\C=C\[C@@H](OC(=O)CCC(=O)O[C@H]2O[C@@H](CO)[C@H](O)[C@@H](O)[C@@H]2O)C/C=C/C=C\C(=O)O1`: the MIC in the test with Aspergillus niger [1], against Botrytis cinerea [2], with Colletotrichum acutatum [3], against Rhizoctonia solani [4], against Candida albicans [5] and against Saccharomyces cerevisiae [6] was 0.02 µg/mL (≈ 0.0301 µM) throughout.

As to `C[C@@H]1CCC/C=C/[C@@H]2O[C@](O)(C[C@@H](O)C/C=C\C=C\C(O[C@@H]3O[C@H](CO)[C@@H](O)[C@H](O)[C@H]3O)C/C=C/C=C\C(=O)O1)[C@H]2O` (stereo not given in full), the MIC with Saccharomyces cerevisiae [13] was 0.22 µg/mL (≈ 0.369 µM).

For the molecule `CCCCCCCCCCCCCCC(=O)OCC(O)CO[C@@H]1O[C@H](CO[C@@H]2C[C@H](CO)[C@@H](O)[C@H](O)[C@H]2O)[C@@H](O)[C@H](O)[C@H]1O` (stereo not given in full), the MIC in the test on Aspergillus niger [7], with Rhizoctonia solani [14], in the test on Botrytis cinerea [15], in the test with Colletotrichum acutatum [16] and in the test on Candida albicans [12] was 0.02 µg/mL (≈ 0.0313 µM) in each case.

For `C[C@@H]1CCC/C=C/C=C/[C@H](O)C[C@@H](O)C[C@@H]2O[C@@H]2/C=C/[C@@H](O)C/C=C/C=C\C(=O)O1` [GAGEOMACROLACTIN 1], the minimal inhibitory concentration (MIC) against Aspergillus niger [1], in the test with Botrytis cinerea [2], against Colletotrichum acutatum [3], against Rhizoctonia solani [4], against Candida albicans [5] and against Saccharomyces cerevisiae [6] was 0.02 µg/mL (≈ 0.0478 µM) in each case.

Consider `CC[C@H](CCCCCCCCCCCCC(=O)N[C@@H](C)C(=O)O)O[C@@H]1O[C@H](COC(=O)CCC(=O)O)[C@@H](O)[C@H](O)[C@H]1O`, for which the minimal inhibitory concentration (MIC) with Aspergillus niger [7], against Rhizoctonia solani [14], in the test with Botrytis cinerea [15], in the test on Colletotrichum acutatum [16] and in the test with Candida albicans [12] was 0.02 µg/mL (≈ 0.033 µM) throughout.

For `CCC(C)CCCCCCCC[C@@H](O)CC(=O)N[C@@H](CCC(=O)OC)C(=O)N[C@@H](CC(C)C)C(=O)N[C@@H](CC(C)C)C(=O)N[C@@H](CC(C)C)C(=O)O` (stereo not given in full) (X3-E(OMe)LLL-OH), the minimal inhibitory concentration (MIC) against Rhizoctonia solani [8], with Phytophthora capsici, in the test on Botrytis cinerea [9] and against Colletotrichum acutatum [10] was 0.01 µg/mL (≈ 0.0135 µM) throughout.

The record behind these values is ChEMBL document CHEMBL5260795, “Antifungal potential of marine natural products” (Eur J Med Chem, 2017).
